Experimental data from patent publication US20100286145A1, “ISOPHTHALAMIDE DERIVATIVES INHIBITING BETA-SECRETASE ACTIVITY” (CoMentis, Inc., priority 2007, published 2010).
Where two headings read alike, the source gives them in different places.

Key:
[1] = test system: Aβ production in Chinese hamster ovary cells that over-express human APP695 with the London and Swedish mutations; assay: Cellular Aβ IC50 determination (Aβ40 sandwich ELISA); format: cell-based; conditions: Cricetulus griseus
Outline: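 CHO cells overexpressing human APP695 with London and Swedish mutations, seeded at 10% confluency, treated with compounds up to about 4 μM final (0.4% DMSO). Secreted Aβ40 measured by sandwich ELISA relative to control and fitted to a 4-parameter IC50 model.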

memapsin 2 = memapsin 2 (Homo sapiens, UniProt P56817); assay: Inhibition of memapsin 2 beta-secretase activity (fluorogenic substrate FS-2); format: biochemical; conditions: memapsin 2, pH 4, 37° C., read-out: M2Ki
memapsin 2, sequence (P56817 46-501): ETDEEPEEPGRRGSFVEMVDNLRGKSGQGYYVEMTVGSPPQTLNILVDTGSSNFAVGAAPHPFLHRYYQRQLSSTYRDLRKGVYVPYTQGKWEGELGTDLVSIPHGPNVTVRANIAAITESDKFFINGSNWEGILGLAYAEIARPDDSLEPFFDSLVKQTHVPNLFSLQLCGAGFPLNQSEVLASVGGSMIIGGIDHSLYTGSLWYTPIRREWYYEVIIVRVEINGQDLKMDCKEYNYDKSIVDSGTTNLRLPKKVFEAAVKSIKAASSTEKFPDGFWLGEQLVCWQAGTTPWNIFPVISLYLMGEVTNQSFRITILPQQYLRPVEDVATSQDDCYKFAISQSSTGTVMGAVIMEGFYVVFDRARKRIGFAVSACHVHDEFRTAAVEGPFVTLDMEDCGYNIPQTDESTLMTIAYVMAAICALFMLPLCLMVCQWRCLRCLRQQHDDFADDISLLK
Outline: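 Memapsin 2 pre-incubated 20 min with compound at pH 4, 37° C, then FS-2 substrate (MCA-SEVNLDAEFK-DNP, APP Swedish cleavage site) added. Rate of fluorescence increase compared with uninhibited controls, fitted to a tight-binding inhibition model.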

[2] = cellular Aβ production, read-out: IC50

Compound | IC50 [1, 2] | Ki (memapsin 2; 20 minutes pre-incubation) | IC50 [1] | Ki (memapsin 2; fluorogenic substrate FS-2)
Cc1csc(CN(C)C(=O)c2cccc(C(=O)N[C@@H](Cc3ccccc3)[C@H](O)CNCc3cccc(N)c3)c2)n1 [Compound 191, N1-((2S,3R)-4-(3-aminobenzylamino)-3-hydroxy-1-phenylbutan-2-yl)-N3-methyl-N3-((4-methylthiazol-2-yl)methyl)isophthalamide] | > 5000 nM | > 501 nM |  | 
Cc1csc(CN(C)C(=O)c2cc(CO)cc(C(=O)N[C@@H](Cc3ccccc3)[C@H](O)CNCc3cncc(C(C)C)c3)c2)n1 [Compound 192, N1-((2S,3R)-3-hydroxy-4-((5-isopropylpyridin-3-yl)methylamino)-1-phenylbutan-2-yl)-5-(hydroxymethyl)-N3-methyl-N3-((4-methylthiazol-2-yl)methyl)isophthalamide] | < 1000 nM | < 300 nM |  | 
CC(=O)Nc1cc(CNC[C@@H](O)[C@H](Cc2ccccc2)NC(=O)c2cccc(C(=O)N(C)Cc3nc(C)cs3)c2)cc(C(C)C)c1 [Compound 193, N1-((2S,3R)-4-(3-acetamido-5-isopropylbenzylamino)-3-hydroxy-1-phenylbutan-2-yl)-N3-methyl-N3-((4-methylthiazol-2-yl)methyl)isophthalamide] | < 1000 nM | < 300 nM |  | 
COc1cccc(CNC[C@@H](O)[C@H](Cc2ccccc2)NC(=O)c2cc(C(=O)N(C)Cc3nc(C)cs3)cc(N3CCCC3=O)c2)c1 [Compound 194, N1-((2S,3R)-3-hydroxy-4-(3-methoxybenzylamino)-1-phenylbutan-2-yl)-N3-methyl-N3-((4-methylthiazol-2-yl)methyl)-5-(2-oxopyrrolidin-1-yl)isophthalamide] | < 1000 nM | < 300 nM |  | 
Cc1csc(CN(C)C(=O)c2cc(C(=O)N[C@@H](Cc3ccccc3)[C@H](O)CNCc3cncc(C(C)C)c3)cc(N3CCCC3=O)c2)n1 [Compound 195, N1-((2S,3R)-3-hydroxy-4-((5-isopropylpyridin-3-yl)methylamino)-1-phenylbutan-2-yl)-N3-methyl-N3-((4-methylthiazol-2-yl)methyl)-5-(2-oxopyrrolidin-1-yl)isophthalamide] | < 1000 nM | < 300 nM |  | 
Cc1csc(CN(C)C(=O)c2cccc(C(=O)N[C@@H](Cc3ccccc3)[C@H](O)CNCc3cc(-c4ccccc4)on3)c2)n1 [Compound 196, N1-((2S,3R)-3-hydroxy-1-phenyl-4-((5-phenylisoxazol-3-yl)methylamino)butan-2-yl)-N3-methyl-N3-((4-methylthiazol-2-yl)methyl)isophthalamide] | < 1000 nM | < 300 nM |  | 
Cc1csc(CNC(=O)c2cc(C(=O)N[C@@H](Cc3ccccc3)[C@H](O)CNCc3cncc(C(C)C)c3)cc(-c3ncco3)c2)n1 [Compound 197, N1-((2S,3R)-3-hydroxy-4-((5-isopropylpyridin-3-yl)methylamino)-1-phenylbutan-2-yl)-N3-((4-methylthiazol-2-yl)methyl)-5-(oxazol-2-yl)isophthalamide] | < 1000 nM | < 300 nM |  | 
Cc1csc(CN(C)C(=O)c2cccc(C(=O)N[C@@H](Cc3ccccc3)[C@H](O)CNCc3cc(OC(=O)N(C)C)cc(C(C)C)c3)c2)n1 [Compound 198, 3-(((2R,3S)-2-hydroxy-3-(3-(methyl((4-methylthiazol-2-yl)methyl)carbamoyl)benzamido)-4-phenylbutylamino)methyl)-5-isopropylphenyl dimethylcarbamate] |  | < 300 nM | < 1000 nM | 
COc1cccc(CNC[C@@H](O)[C@H](Cc2ccccc2)NC(=O)c2cc(C(=O)NCc3nc(C)cs3)cc(N3CCCC3=O)c2)c1 [Compound 199, N1-((2S,3R)-3-hydroxy-4-(3-methoxybenzylamino)-1-phenylbutan-2-yl)-N3-((4-methylthiazol-2-yl)methyl)-5-(2-oxopyrrolidin-1-yl)isophthalamide] | > 5000 nM | > 501 nM |  | 
Cc1csc(CN(C)C(=O)c2cc(C(=O)N[C@@H](Cc3ccccc3)[C@H](O)CNCc3cncc(C(C)C)c3)cc(-c3cccnc3)c2)n1 [Compound 200, N1-((2S,3R)-3-hydroxy-4-((5-isopropylpyridin-3-yl)methylamino)-1-phenylbutan-2-yl)-N3-methyl-N3-((4-methylthiazol-2-yl)methyl)-5-(pyridin-3-yl)isophthalamide] | < 1000 nM | < 300 nM |  | 
COc1cccc([C@@H](C)NC[C@@H](O)[C@H](Cc2ccccc2)NC(=O)c2cc(C(=O)N[C@H](C)c3ccccc3)cc(N(C)S(C)(=O)=O)c2)c1 [Compound 201, N1-((2S,3R)-3-hydroxy-4-((R)-1-(3-methoxyphenyl)ethylamino)-1-phenylbutan-2-yl)-5-(N-methylmethylsulfonamido)-N3-((R)-1-phenylethyl)isophthalamide] | < 1000 nM | < 300 nM |  | 
COC(=O)Nc1cc(CNC[C@@H](O)[C@H](Cc2ccccc2)NC(=O)c2cccc(C(=O)N(C)Cc3nc(C)cs3)c2)cc(C(C)C)c1 [Compound 202, methyl 3-(((2R,3S)-2-hydroxy-3-(3-(methyl((4-methylthiazol-2-yl)methyl)carbamoyl)benzamido)-4-phenylbutylamino)methyl)-5-isopropylphenylcarbamate] | < 1000 nM | < 300 nM |  | 
Cc1csc(CN(C)C(=O)c2cc(C(=O)N[C@@H](Cc3ccccc3)[C@H](O)CNCc3cncc(C(C)C)c3)cc(C(F)F)c2)n1 [Compound 204, 5-(difluoromethyl)-N1-((2S,3R)-3-hydroxy-4-((5-isopropylpyridin-3-yl)methylamino)-1-phenylbutan-2-yl)-N3-methyl-N3-((4-methylthiazol-2-yl)methyl)isophthalamide] | < 1000 nM | < 300 nM |  | 
Cc1csc(CN(C)C(=O)c2cc(C(=O)N[C@@H](Cc3ccccc3)[C@H](O)CNCc3cncc(C(C)C)c3)cc(-c3ccncc3)c2)n1 [Compound 205, N1-((2S,3R)-3-hydroxy-4-((5-isopropylpyridin-3-yl)methylamino)-1-phenylbutan-2-yl)-N3-methyl-N3-((4-methylthiazol-2-yl)methyl)-5-(pyridin-4-yl)isophthalamide] | < 1000 nM | < 300 nM |  | 
Cc1csc(CN(C)C(=O)c2cccc(C(=O)N[C@@H](Cc3ccccc3)[C@H](O)CN[C@H](C)c3cncc(C(C)C)c3)c2)n1 [Compound 206, N1-((2S,3R)-3-hydroxy-4-((R)-1-(5-isopropylpyridin-3-yl)ethylamino)-1-phenylbutan-2-yl)-N3-methyl-N3-((4-methylthiazol-2-yl)methyl)isophthalamide] | < 1000 nM | < 300 nM |  | 
COc1cc(CNC[C@@H](O)[C@H](Cc2ccccc2)NC(=O)c2cccc(C(=O)N(C)Cc3nc(C)cs3)c2)nc(N)n1 [Compound 207, N1-((2S,3R)-4-((2-amino-6-methoxypyrimidin-4-yl)methylamino)-3-hydroxy-1-phenylbutan-2-yl)-N3-methyl-N3-((4-methylthiazol-2-yl)methyl)isophthalamide] | > 5000 nM | 301 to 500 nM |  | 
Cc1csc(CN(C)C(=O)c2cc(C(=O)N[C@@H](Cc3ccccc3)[C@H](O)CNCc3cc(OC(=O)N(C)C)cc(C(C)C)c3)cc(N(C)C)c2)n1 [Compound 209, 3-(((2R,3S)-3-(3-(dimethylamino)-5-(methyl((4-methylthiazol-2-yl)methyl)carbamoyl)benzamido)-2-hydroxy-4-phenylbutylamino)methyl)-5-isopropylphenyl dimethylcarbamate] |  | < 300 nM | < 1000 nM | 
COc1cccc(CNC[C@@H](O)[C@H](Cc2ccccc2)NC(=O)c2cc(C(=O)N(C)Cc3nc(C)cs3)cc(-c3ccccc3OC)c2)c1 [Compound 210, N3-((2S,3R)-3-hydroxy-4-(3-methoxybenzylamino)-1-phenylbutan-2-yl)-2′-methoxy-N5-methyl-N5-((4-methylthiazol-2-yl)methyl)biphenyl-3,5-dicarboxamide] | < 1000 nM |  |  | < 300 nM
CC(C)c1cncc(CNC[C@@H](O)[C@H](Cc2ccccc2)NC(=O)c2cc(C(=O)N[C@H](C)c3ccccc3)cc(-c3ncco3)c2)c1 [Compound 211, N1-((2S,3R)-3-hydroxy-4-((5-isopropylpyridin-3-yl)methylamino)-1-phenylbutan-2-yl)-5-(oxazol-2-yl)-N3-((R)-1-phenylethyl)isophthalamide] | < 1000 nM |  |  | < 300 nM
COc1cc(CNC[C@@H](O)[C@H](Cc2ccccc2)NC(=O)c2cccc(C(=O)N(C)Cc3nc(C)cs3)c2)nc(N(C)C)n1 [Compound 212, N1-((2S,3R)-4-((2-(dimethylamino)-6-methoxypyrimidin-4-yl)methylamino)-3-hydroxy-1-phenylbutan-2-yl)-N3-methyl-N3-((4-methylthiazol-2-yl)methyl)isophthalamide] | < 1000 nM |  |  | < 300 nM
COc1cccc(CNC[C@@H](O)[C@H](Cc2ccccc2)NC(=O)c2cc(C(=O)N[C@H](C)c3ccccc3)cc(-c3ncco3)c2)c1 [Compound 213, N1-((2S,3R)-3-hydroxy-4-(3-methoxybenzylamino)-1-phenylbutan-2-yl)-5-(oxazol-2-yl)-N3-((R)-1-phenylethyl)isophthalamide] | < 1000 nM |  |  | 301 to 500 nM
Cc1csc(CN(C)C(=O)c2cc(C(=O)N[C@@H](Cc3ccccc3)[C@H](O)CNCc3cncc(C(C)C)c3)cc(-c3cnccn3)c2)n1 [Compound 214, N1-((2S,3R)-3-hydroxy-4-((5-isopropylpyridin-3-yl)methylamino)-1-phenylbutan-2-yl)-N3-methyl-N3-((4-methylthiazol-2-yl)methyl)-5-(pyrazin-2-yl)isophthalamide] | < 1000 nM |  |  | < 300 nM
